Laboratory results from the NIST ThermoML archive (doi:10.1021/acs.jced.8b00554).
“And” between values parts separate entries of the source, which are not always exact repeats. Equal values may be shown once. Numbers after ± are expanded uncertainties.

Test: xn = mol fraction of the nth substance listed
Settings: Liquid, Vibrating tube method

CCCCCCCCC [nonane] + CCCO
Settings | mass density
313.15 K, 18020 kPa, x2 = 0.4272 | 731.02 ± 4.7 kg/m3
313.15 K, 19000 kPa, x2 = 0.2315 | 725.04 ± 4.7 kg/m3
313.15 K, 19000 kPa, x2 = 0.3229 | 705.41 ± 4.5 kg/m3
313.15 K, 19000 kPa, x2 = 0.7021 | 757.45 ± 4.9 kg/m3
313.15 K, 19000 kPa, x2 = 0.8941 | 782.35 ± 5 kg/m3
313.15 K, 19010 kPa, x2 = 0.1231 | 682.1 ± 4.5 kg/m3 and 720.5 ± 4.7 kg/m3
313.15 K, 19010 kPa, x2 = 0.2315 | 685.8 ± 4.4 kg/m3
313.15 K, 19010 kPa, x2 = 0.4272 | 732.06 ± 4.7 kg/m3
313.15 K, 19020 kPa, x2 = 0.3229 | 729.37 ± 4.7 kg/m3
313.15 K, 19020 kPa, x2 = 0.4272 | 735.24 ± 4.7 kg/m3
313.15 K, 20000 kPa, x2 = 0.1231 | 721.22 ± 4.9 kg/m3
313.15 K, 20010 kPa, x2 = 0.1231 | 683.05 ± 4.4 kg/m3
313.15 K, 20010 kPa, x2 = 0.2315 | 686.85 ± 4.4 kg/m3
313.15 K, 20010 kPa, x2 = 0.4272 | 736 ± 4.7 kg/m3
313.15 K, 20010 kPa, x2 = 0.7021 | 758.2 ± 4.9 kg/m3
313.15 K, 20010 kPa, x2 = 0.8941 | 783.1 ± 5 kg/m3
313.15 K, 20020 kPa, x2 = 0.2315 | 725.78 ± 4.7 kg/m3
313.15 K, 20020 kPa, x2 = 0.3229 | 706.48 ± 4.6 kg/m3 and 730.09 ± 4.7 kg/m3
313.15 K, 20020 kPa, x2 = 0.4272 | 733.04 ± 4.7 kg/m3
323.15 K, 100 kPa, x2 = 0.1231 | 696.08 ± 4.5 kg/m3
323.15 K, 100 kPa, x2 = 0.2315 | 700.11 ± 4.5 kg/m3
323.15 K, 100 kPa, x2 = 0.3229 | 704.16 ± 4.5 kg/m3
323.15 K, 100 kPa, x2 = 0.4272 | 709.94 ± 4.5 kg/m3
323.15 K, 100 kPa, x2 = 0.7021 | 732.13 ± 4.7 kg/m3
323.15 K, 100 kPa, x2 = 0.8941 | 757.59 ± 4.8 kg/m3
323.15 K, 1000 kPa, x2 = 0.7021 | 732.62 ± 4.7 kg/m3
323.15 K, 1010 kPa, x2 = 0.1231 | 696.28 ± 4.5 kg/m3
323.15 K, 1010 kPa, x2 = 0.2315 | 700.63 ± 4.5 kg/m3
323.15 K, 1010 kPa, x2 = 0.3229 | 704.67 ± 4.5 kg/m3
323.15 K, 1010 kPa, x2 = 0.4272 | 710.4 ± 4.5 kg/m3
323.15 K, 1010 kPa, x2 = 0.8941 | 758.12 ± 4.8 kg/m3
323.15 K, 2000 kPa, x2 = 0.1231 | 697.28 ± 4.5 kg/m3
323.15 K, 2000 kPa, x2 = 0.8941 | 759.05 ± 4.9 kg/m3
323.15 K, 2010 kPa, x2 = 0.2315 | 701.62 ± 4.5 kg/m3
323.15 K, 2010 kPa, x2 = 0.3229 | 705.65 ± 4.5 kg/m3
323.15 K, 2010 kPa, x2 = 0.4272 | 711.37 ± 4.6 kg/m3
323.15 K, 2010 kPa, x2 = 0.7021 | 733.6 ± 4.7 kg/m3
323.15 K, 3010 kPa, x2 = 0.2315 | 702.6 ± 4.5 kg/m3
323.15 K, 3010 kPa, x2 = 0.3229 | 706.63 ± 4.5 kg/m3
323.15 K, 3010 kPa, x2 = 0.4272 | 712.36 ± 4.6 kg/m3
323.15 K, 3010 kPa, x2 = 0.8941 | 760 ± 4.9 kg/m3
323.15 K, 3020 kPa, x2 = 0.1231 | 698.25 ± 4.5 kg/m3
323.15 K, 3020 kPa, x2 = 0.7021 | 734.56 ± 4.7 kg/m3
323.15 K, 4000 kPa, x2 = 0.2315 | 703.57 ± 4.5 kg/m3
323.15 K, 4000 kPa, x2 = 0.4272 | 713.31 ± 4.6 kg/m3
323.15 K, 4000 kPa, x2 = 0.8941 | 760.92 ± 4.9 kg/m3
323.15 K, 4010 kPa, x2 = 0.1231 | 699.22 ± 4.5 kg/m3
323.15 K, 4010 kPa, x2 = 0.3229 | 707.6 ± 4.5 kg/m3
323.15 K, 4020 kPa, x2 = 0.7021 | 735.53 ± 4.7 kg/m3
323.15 K, 5010 kPa, x2 = 0.1231 | 700.18 ± 4.5 kg/m3
323.15 K, 5010 kPa, x2 = 0.2315 | 704.52 ± 4.5 kg/m3
323.15 K, 5010 kPa, x2 = 0.4272 | 714.28 ± 4.6 kg/m3
323.15 K, 5010 kPa, x2 = 0.7021 | 736.47 ± 4.7 kg/m3
323.15 K, 5010 kPa, x2 = 0.8941 | 761.84 ± 4.9 kg/m3
323.15 K, 5020 kPa, x2 = 0.3229 | 708.55 ± 4.5 kg/m3
323.15 K, 6010 kPa, x2 = 0.1231 | 701.13 ± 4.5 kg/m3
323.15 K, 6010 kPa, x2 = 0.2315 | 705.46 ± 4.5 kg/m3
323.15 K, 6010 kPa, x2 = 0.3229 | 709.51 ± 4.5 kg/m3
323.15 K, 6010 kPa, x2 = 0.4272 | 715.23 ± 4.6 kg/m3
323.15 K, 6010 kPa, x2 = 0.7021 | 737.41 ± 4.7 kg/m3
323.15 K, 6010 kPa, x2 = 0.8941 | 762.78 ± 4.9 kg/m3
323.15 K, 7000 kPa, x2 = 0.8941 | 763.69 ± 4.9 kg/m3
323.15 K, 7010 kPa, x2 = 0.3229 | 710.46 ± 4.5 kg/m3
323.15 K, 7020 kPa, x2 = 0.1231 | 702.05 ± 4.5 kg/m3
323.15 K, 7020 kPa, x2 = 0.2315 | 706.4 ± 4.5 kg/m3
323.15 K, 7020 kPa, x2 = 0.4272 | 716.18 ± 4.6 kg/m3
323.15 K, 7020 kPa, x2 = 0.7021 | 738.36 ± 4.7 kg/m3
323.15 K, 8010 kPa, x2 = 0.3229 | 711.38 ± 4.6 kg/m3
323.15 K, 8010 kPa, x2 = 0.4272 | 717.13 ± 4.6 kg/m3
323.15 K, 8010 kPa, x2 = 0.7021 | 739.3 ± 4.7 kg/m3
323.15 K, 8010 kPa, x2 = 0.8941 | 764.6 ± 4.9 kg/m3
323.15 K, 8020 kPa, x2 = 0.1231 | 702.98 ± 4.5 kg/m3
323.15 K, 8020 kPa, x2 = 0.2315 | 707.34 ± 4.5 kg/m3
323.15 K, 9000 kPa, x2 = 0.2315 | 708.26 ± 4.5 kg/m3
323.15 K, 9000 kPa, x2 = 0.7021 | 740.23 ± 4.7 kg/m3
323.15 K, 9010 kPa, x2 = 0.1231 | 703.89 ± 4.5 kg/m3
323.15 K, 9010 kPa, x2 = 0.4272 | 718.05 ± 4.6 kg/m3
323.15 K, 9020 kPa, x2 = 0.3229 | 712.32 ± 4.6 kg/m3
323.15 K, 9020 kPa, x2 = 0.8941 | 765.49 ± 4.9 kg/m3
323.15 K, 10000 kPa, x2 = 0.1231 | 704.81 ± 4.5 kg/m3
323.15 K, 10000 kPa, x2 = 0.8941 | 766.39 ± 4.9 kg/m3
323.15 K, 10010 kPa, x2 = 0.3229 | 713.24 ± 4.6 kg/m3
323.15 K, 10010 kPa, x2 = 0.4272 | 718.99 ± 4.6 kg/m3
323.15 K, 10010 kPa, x2 = 0.7021 | 741.14 ± 4.8 kg/m3
323.15 K, 10020 kPa, x2 = 0.2315 | 709.17 ± 4.5 kg/m3
323.15 K, 11000 kPa, x2 = 0.3229 | 714.15 ± 4.6 kg/m3
323.15 K, 11000 kPa, x2 = 0.8941 | 767.27 ± 4.9 kg/m3
323.15 K, 11010 kPa, x2 = 0.1231 | 705.72 ± 4.5 kg/m3
323.15 K, 11010 kPa, x2 = 0.2315 | 710.07 ± 4.5 kg/m3
323.15 K, 11010 kPa, x2 = 0.4272 | 719.89 ± 4.6 kg/m3
323.15 K, 11010 kPa, x2 = 0.7021 | 742.04 ± 4.8 kg/m3
323.15 K, 12010 kPa, x2 = 0.3229 | 715.05 ± 4.6 kg/m3
323.15 K, 12010 kPa, x2 = 0.7021 | 742.93 ± 4.8 kg/m3
